According to patent publication US12145931B2, “Substituted pyrrolo[2,3-c]quinolines as antimalarials” (COUNCIL OF SCIENTIFIC AND INDUSTRIAL RESEARCH, priority 2018, dated 2024):

Experiments:
[1] = test system: Plasmodium falciparum 3D7 strain; assay: Anti-malarial screen, parasite growth by SybrGreen staining; format: cell-based; conditions: 60 hours incubation, triplicates; for inhibition at 10 µM / EC50: Plasmodium falciparum, 3D7; for EC50: serial dilution from 10 μM to 1 nM
Method: Plasmodium falciparum 3D7 strain from Malaria Research and Reference Reagent Resource Center (ID NO: MRA-102). Plasmodium falciparum (3D7) is cultured in the laboratory as per standard protocols [AzarRadfar, Darío Méndez, Carlos Moneriz, María Linares, Patricia Marín-García, Antonio Puyet, AmaliaDiez & José M Bautista. Synchronous culture of Plasmodium falciparum at high parasitemia levels Nature Protocols 2009, 4, 1899-1915]. When the parasitemia (i.e., percent infection of human RBCs) reaches >15%, 1 mL of culture suspension is layered over 10 mL of 60% percoll (pH and osmolality adjusted using PBS) and centrifuged at 3000 rpm for 5 min using a swing out rotor. This separates late stage parasite (trophozoite and schizont) infected RBC (as a band on top of the percoll cushion) from early stage parasite (ring) infected and uninfected RBCs (as pellet at the bottom of the percoll cushion). The >90% enriched late stage parasite infected RBCs are collected, washed with complete RPMI media and added to a 2% hematocrit RBC suspension such that the final parasitemia is around 2%. The parasites grow in a synchronous manner for at least 2 rounds of asexual cycle (48 hours). This culture is then used for anti-malarial screening as given below.
200 μL of ring stage parasite culture at ˜2% parasitemia (see above) is added to each well in a 96 well plate pre-seeded with the compound of interest at the required concentration. 1 mM and 10 mM stocks dilutions of the compounds are prepared in cell culture grade DMSO, and the final concentration used in the assay is either 10 μM (for identifying molecules affecting parasite growth) or a serial dilution from 10 μM to 1 nM (for estimating the dose response and EC50 value). All compounds are plated in triplicates as biological replicates. Each 96 well plate also includes negative control (compound untreated & DMSO only treated culture) and positive control (standard anti-malarial compounds treated culture). […] After plating, the culture is incubated in standard growth condition for 60 hours, after which the cultures are processed for testing the effect of compounds on parasite growth as given below.
The inventors have standardized a SybrGreen dye based staining protocol for estimating parasite growth, which is a modification of previously published protocol [Plouffe et. al, 2008]. SybrGreen dye binds to DNA and only the DNA bound dye gives a specific fluorescence emission ([…]) when excited ([…]). Since only the parasites have DNA (as human RBCs are devoid of nucleus), the SybrGreensignal is a direct indictor of parasite growth. A standard fluorescent plate reader issued for assay read out, and the staining is done as follows. 25 μL of 10× stock containing of dye and Triton X100 (0.5%) is added to each of 200 μL culture growing in a 96 well plate and mixed well and incubated for 15 min-30 min before reading fluorescence emission using the plate reader at the appropriate wavelength.

[2] = 10 μM compound, ring stage culture ~2% parasitemia

Row | EC50 [1] [µM] | melting point [°C] | Compound | inhibition at 10 µM [1, 2] [%] | Average % growth Inhibition [1, 2] [%]
1 | 8.58 |  | CCN(CC)Cc1nc2ccccc2c2cc[nH]c12 [Ib, N-((3H-pyrrolo[2,3-c]quinolin-4-yl)methyl)-N-ethylethanamine] | 97 | 
2 | 4.48 |  | OCCN(CCO)Cc1nc2ccccc2c2cc[nH]c12 [Id] | 91.5 | 
3 | 8.72 | 139 to 141 | CN(Cc1nc2ccccc2c2cc[nH]c12)c1ccccc1 [If, N-((3H-pyrrolo[2,3-c]quinolin-4-yl)methyl)-N-methyl aniline] | 89.9 | 
4 | 1.99 | 148 to 150 | c1ccc2c(c1)nc(CN1CCOCC1)c1[nH]ccc12 [Ih, 4-((3H-pyrrolo[2,3-c]quinolin-4-yl)methyl)morpholine] | 86.8 | 
5 | 0.74 |  | COc1ccc(N(C)Cc2nc3ccccc3c3cc[nH]c23)cc1 [Il, N-((3H-pyrrolo[2,3-c]quinolin-4-yl)methyl)-4-methoxy-N-methylaniline] | 94.1 | 
6 | 3.7 |  | Cc1nc2ccccc2c2[nH]ccc12 [In, 4-methyl-1H-pyrrolo[3,2-c]quinoline] | 99.1 | 

The next lines start with the compound.

Row | Compound | EC50 [1] [µM] | melting point [°C] | inhibition at 10 µM [1, 2] [%] | Average % growth Inhibition [1, 2] [%]
7 | O=Cc1nc2ccccc2c2ccn(S(=O)(=O)c3ccccc3)c12 [Compound of formula 3, 3-(phenylsulfonyl)-3H-Pyrrolo[2,3-c]quinoline-4-carbaldehyde] | > 10 |  | 88.3 | 
8 | CCN(CC)Cc1nc2ccccc2c2ccn(S(=O)(=O)c3ccccc3)c12 [Ia, N-ethyl-N-((3-(phenylsulfonyl)-3H-pyrrolo [2,3-c]quinolin-4-yl)methyl)ethanamine] | 0.27 |  | 99.7 | 
9 | O=S(=O)(c1ccccc1)n1ccc2c3ccccc3nc(CN(CCO)CCO)c21 [Ic] | > 10 | 98 to 99 | 93.6 | 
10 | CN(Cc1nc2ccccc2c2ccn(S(=O)(=O)c3ccccc3)c12)c1ccccc1 [Ie, N-methyl-N-((3-(phenylsulfonyl)-3H-pyrrolo[2,3-c]quinolin-4-yl)methyl)aniline] | > 10 | 146 to 148 | 55.5 | 
11 | O=S(=O)(c1ccccc1)n1ccc2c3ccccc3nc(CN3CCOCC3)c21 [Ig, 4-((3-(phenylsulfonyl)-3H-Pyrrolo[2,3-c]quinolin-4-yl)methyl)morpholine] | 7.86 | 138 to 140 | 79.4 | 
12 | O=S(=O)(c1ccccc1)n1ccc2c3ccccc3nc(CN(Cc3nc4ccccc4c4ccn(S(=O)(=O)c5ccccc5)c34)c3ccccc3)c21 [Ii, N,N-bis((3-(phenylsulfonyl)-3H-pyrrolo[2,3-c]quinolin-4-yl)methyl)aniline] | > 10 | 188 to 190 | 88.3 | 
13 | c1ccc(N(Cc2nc3ccccc3c3cc[nH]c23)Cc2nc3ccccc3c3cc[nH]c23)cc1 [Ij, N,N-bis((3H-pyrrolo[2,3-c]quinolin-4-yl)methyl)aniline] | > 10 | 242 to 244 | 84.1 | 
14 | COc1ccc(N(C)Cc2nc3ccccc3c3ccn(S(=O)(=O)c4ccccc4)c23)cc1 [Ik, 4-methoxy-N-methyl-N-((3-(phenylsulfonyl)-3H-pyrrolo[2,3-c]quinolin-4-yl)methyl)aniline] | > 10 | 48 to 50 | 90.2 | 
15 | CCN(CC)CCCC(C)N(C)Cc1nc2ccccc2c2cc[nH]c12 (stereo not drawn) [Im, N^4-((3H-pyrrolo [2,3-c]quinolin-4-yl)methyl)-N^1,N^1-diethyl-N^4-methylpentane-1,4-diamine] | 0.17 |  | 98.5 | 
16 | O=c1c2ccccc2ncn1Cc1nc2ccccc2c2cc[nH]c12 [NCLite-M1, (3-((3H)-pyrrolo[2,3-c]quinoline-4-yl)methyl)quinazolin-4(3H)-one, reference compound] |  |  |  | 9.18
